# Assay results taken from ChEMBL document CHEMBL5442219.
# Assays:
# Conditions in all cases: Compound concentration 10 µM
# [1] = target: T1, Alpha-1B adrenergic receptor (Homo sapiens) (UniProt P35368)
# T1 sequence (whole entry): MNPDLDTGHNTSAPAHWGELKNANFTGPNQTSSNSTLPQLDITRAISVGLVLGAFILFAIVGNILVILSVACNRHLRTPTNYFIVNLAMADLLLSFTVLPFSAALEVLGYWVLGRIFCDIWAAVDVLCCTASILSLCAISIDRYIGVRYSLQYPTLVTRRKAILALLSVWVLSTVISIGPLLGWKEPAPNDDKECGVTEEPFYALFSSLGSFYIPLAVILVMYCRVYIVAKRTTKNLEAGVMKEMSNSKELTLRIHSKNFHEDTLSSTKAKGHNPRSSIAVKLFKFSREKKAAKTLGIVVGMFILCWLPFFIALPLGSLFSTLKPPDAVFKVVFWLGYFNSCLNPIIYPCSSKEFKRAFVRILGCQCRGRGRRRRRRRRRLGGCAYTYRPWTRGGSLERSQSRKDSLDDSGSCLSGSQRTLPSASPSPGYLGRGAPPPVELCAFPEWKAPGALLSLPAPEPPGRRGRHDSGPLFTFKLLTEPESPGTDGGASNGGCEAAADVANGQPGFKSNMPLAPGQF
# Description: PDSP Primary Binding target: ADRA1B - Compounds are tested at 10 uM concentration, plate are incubated at room temperature in the dark for 90 minutes. Reaction are stopped by vacuum filtration onto 0.3% polyethyleneimine soaked filter mats using Filtermate harvester. Scintilation cocktail is then melted onto microwave-dried filters on a hot plate and the radio activity is counted in Microbia counter.
# [2] = target: T2, Alpha-1D adrenergic receptor (Homo sapiens) (UniProt P25100)
# T2 sequence (whole entry): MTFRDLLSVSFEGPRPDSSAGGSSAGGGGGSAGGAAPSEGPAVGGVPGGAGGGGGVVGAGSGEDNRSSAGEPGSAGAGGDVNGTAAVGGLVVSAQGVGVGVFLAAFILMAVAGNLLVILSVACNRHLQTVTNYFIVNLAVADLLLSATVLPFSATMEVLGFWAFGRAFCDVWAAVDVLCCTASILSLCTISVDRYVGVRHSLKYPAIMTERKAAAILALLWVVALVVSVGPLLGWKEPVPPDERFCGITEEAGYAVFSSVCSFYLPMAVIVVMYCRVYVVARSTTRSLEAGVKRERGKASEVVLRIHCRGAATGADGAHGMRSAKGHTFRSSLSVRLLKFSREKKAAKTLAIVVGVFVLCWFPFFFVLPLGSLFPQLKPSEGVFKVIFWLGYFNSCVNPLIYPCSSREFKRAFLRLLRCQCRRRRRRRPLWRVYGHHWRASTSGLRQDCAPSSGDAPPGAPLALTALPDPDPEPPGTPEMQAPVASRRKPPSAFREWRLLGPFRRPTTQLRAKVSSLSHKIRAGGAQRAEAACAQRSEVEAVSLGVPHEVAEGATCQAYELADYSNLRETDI
# Description: PDSP Primary Binding target: ADRA1D - Compounds are tested at 10 uM concentration, plate are incubated at room temperature in the dark for 90 minutes. Reaction are stopped by vacuum filtration onto 0.3% polyethyleneimine soaked filter mats using Filtermate harvester. Scintilation cocktail is then melted onto microwave-dried filters on a hot plate and the radio activity is counted in Microbia counter.
# [3] = target: Muscarinic acetylcholine receptor M3 (Homo sapiens) (UniProt P20309)
# Description: PDSP Primary Binding target: CHRM3 - Compounds are tested at 10 uM concentration, plate are incubated at room temperature in the dark for 90 minutes. Reaction are stopped by vacuum filtration onto 0.3% polyethyleneimine soaked filter mats using Filtermate harvester. Scintilation cocktail is then melted onto microwave-dried filters on a hot plate and the radio activity is counted in Microbia counter.
# [4] = target: 5-hydroxytryptamine receptor 2B (Homo sapiens) (UniProt P41595)
# Description: PDSP Primary Binding target: HTR2B - Compounds are tested at 10 uM concentration, plate are incubated at room temperature in the dark for 90 minutes. Reaction are stopped by vacuum filtration onto 0.3% polyethyleneimine soaked filter mats using Filtermate harvester. Scintilation cocktail is then melted onto microwave-dried filters on a hot plate and the radio activity is counted in Microbia counter.
# [5] = target: T3, 5-hydroxytryptamine receptor 3A (Homo sapiens) (UniProt P46098)
# T3 sequence (whole entry): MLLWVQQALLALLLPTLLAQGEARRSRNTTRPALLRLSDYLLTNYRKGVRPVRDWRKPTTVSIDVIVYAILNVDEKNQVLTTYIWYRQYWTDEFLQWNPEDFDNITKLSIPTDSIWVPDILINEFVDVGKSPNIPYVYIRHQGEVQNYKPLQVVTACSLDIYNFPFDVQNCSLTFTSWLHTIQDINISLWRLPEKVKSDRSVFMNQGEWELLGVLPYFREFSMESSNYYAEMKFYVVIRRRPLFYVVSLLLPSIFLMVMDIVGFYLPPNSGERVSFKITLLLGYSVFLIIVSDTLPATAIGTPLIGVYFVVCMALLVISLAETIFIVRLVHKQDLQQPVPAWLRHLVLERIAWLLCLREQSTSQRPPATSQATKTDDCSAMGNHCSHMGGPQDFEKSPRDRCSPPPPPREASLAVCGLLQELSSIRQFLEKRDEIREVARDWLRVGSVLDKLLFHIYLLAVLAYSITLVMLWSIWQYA
# Description: PDSP Primary Binding target: HTR3A - Compounds are tested at 10 uM concentration, plate are incubated at room temperature in the dark for 90 minutes. Reaction are stopped by vacuum filtration onto 0.3% polyethyleneimine soaked filter mats using Filtermate harvester. Scintilation cocktail is then melted onto microwave-dried filters on a hot plate and the radio activity is counted in Microbia counter.
# [6] = target: 5-hydroxytryptamine receptor 5A (Homo sapiens) (UniProt P47898)
# Description: PDSP Primary Binding target: HTR5A - Compounds are tested at 10 uM concentration, plate are incubated at room temperature in the dark for 90 minutes. Reaction are stopped by vacuum filtration onto 0.3% polyethyleneimine soaked filter mats using Filtermate harvester. Scintilation cocktail is then melted onto microwave-dried filters on a hot plate and the radio activity is counted in Microbia counter.
# [7] = target: Sigma non-opioid intracellular receptor 1 (Homo sapiens) (UniProt Q99720)
# Description: PDSP Primary Binding target: SIGMAR1 - Compounds are tested at 10 uM concentration, plate are incubated at room temperature in the dark for 90 minutes. Reaction are stopped by vacuum filtration onto 0.3% polyethyleneimine soaked filter mats using Filtermate harvester. Scintilation cocktail is then melted onto microwave-dried filters on a hot plate and the radio activity is counted in Microbia counter.
# [8] = target: Sodium-dependent dopamine transporter (Homo sapiens) (UniProt Q01959)
# Description: PDSP Primary Binding target: SLC6A3 - Compounds are tested at 10 uM concentration, plate are incubated at room temperature in the dark for 90 minutes. Reaction are stopped by vacuum filtration onto 0.3% polyethyleneimine soaked filter mats using Filtermate harvester. Scintilation cocktail is then melted onto microwave-dried filters on a hot plate and the radio activity is counted in Microbia counter.
# [9] = target: Beta-1 adrenergic receptor (Homo sapiens) (UniProt P08588)
# Description: PDSP Primary Binding target: ADRB1 - Compounds are tested at 10 uM concentration, plate are incubated at room temperature in the dark for 90 minutes. Reaction are stopped by vacuum filtration onto 0.3% polyethyleneimine soaked filter mats using Filtermate harvester. Scintilation cocktail is then melted onto microwave-dried filters on a hot plate and the radio activity is counted in Microbia counter.
# [10] = target: Histamine H3 receptor (Homo sapiens) (UniProt Q9Y5N1)
# Description: PDSP Primary Binding target: HRH3 - Compounds are tested at 10 uM concentration, plate are incubated at room temperature in the dark for 90 minutes. Reaction are stopped by vacuum filtration onto 0.3% polyethyleneimine soaked filter mats using Filtermate harvester. Scintilation cocktail is then melted onto microwave-dried filters on a hot plate and the radio activity is counted in Microbia counter.
# [11] = target: T4, Muscarinic acetylcholine receptor M2 (Homo sapiens) (UniProt P08172)
# T4 sequence (whole entry): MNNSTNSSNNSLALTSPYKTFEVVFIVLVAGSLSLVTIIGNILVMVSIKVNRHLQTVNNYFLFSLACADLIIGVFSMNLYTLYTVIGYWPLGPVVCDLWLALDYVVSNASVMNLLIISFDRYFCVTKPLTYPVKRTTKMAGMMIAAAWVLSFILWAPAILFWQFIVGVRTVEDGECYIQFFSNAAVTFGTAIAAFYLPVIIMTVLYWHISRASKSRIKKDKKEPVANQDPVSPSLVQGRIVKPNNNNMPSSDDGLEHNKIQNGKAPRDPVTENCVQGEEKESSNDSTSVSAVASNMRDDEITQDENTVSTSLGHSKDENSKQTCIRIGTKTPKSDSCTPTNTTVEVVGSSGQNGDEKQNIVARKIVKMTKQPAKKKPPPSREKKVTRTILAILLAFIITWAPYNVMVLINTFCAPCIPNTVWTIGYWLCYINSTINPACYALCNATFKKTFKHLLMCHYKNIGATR
# Description: PDSP Primary Binding target: CHRM2 - Compounds are tested at 10 uM concentration, plate are incubated at room temperature in the dark for 90 minutes. Reaction are stopped by vacuum filtration onto 0.3% polyethyleneimine soaked filter mats using Filtermate harvester. Scintilation cocktail is then melted onto microwave-dried filters on a hot plate and the radio activity is counted in Microbia counter.
# Chain of Sigma non-opioid intracellular receptor 1 (Homo sapiens) (Q99720 whole entry): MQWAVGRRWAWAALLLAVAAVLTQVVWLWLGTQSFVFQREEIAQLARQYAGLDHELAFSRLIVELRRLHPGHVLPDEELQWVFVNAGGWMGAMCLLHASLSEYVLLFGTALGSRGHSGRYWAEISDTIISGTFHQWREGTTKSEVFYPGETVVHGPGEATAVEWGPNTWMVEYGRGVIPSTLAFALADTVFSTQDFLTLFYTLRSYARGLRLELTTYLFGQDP
# Chain of Histamine H3 receptor (Homo sapiens) (Q9Y5N1 whole entry): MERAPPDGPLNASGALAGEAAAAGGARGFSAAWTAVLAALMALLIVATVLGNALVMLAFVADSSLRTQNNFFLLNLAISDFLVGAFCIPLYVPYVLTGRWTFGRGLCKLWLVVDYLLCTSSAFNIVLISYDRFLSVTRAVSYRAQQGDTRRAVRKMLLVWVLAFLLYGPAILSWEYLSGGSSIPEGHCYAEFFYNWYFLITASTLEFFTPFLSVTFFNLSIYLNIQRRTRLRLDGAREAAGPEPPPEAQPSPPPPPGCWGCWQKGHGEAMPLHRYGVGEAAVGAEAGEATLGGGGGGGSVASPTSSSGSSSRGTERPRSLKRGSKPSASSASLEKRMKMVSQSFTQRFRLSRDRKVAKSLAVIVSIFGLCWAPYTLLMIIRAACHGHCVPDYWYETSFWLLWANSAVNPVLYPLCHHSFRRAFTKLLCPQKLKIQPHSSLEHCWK
# Chain of 5-hydroxytryptamine receptor 2B (Homo sapiens) (P41595 whole entry): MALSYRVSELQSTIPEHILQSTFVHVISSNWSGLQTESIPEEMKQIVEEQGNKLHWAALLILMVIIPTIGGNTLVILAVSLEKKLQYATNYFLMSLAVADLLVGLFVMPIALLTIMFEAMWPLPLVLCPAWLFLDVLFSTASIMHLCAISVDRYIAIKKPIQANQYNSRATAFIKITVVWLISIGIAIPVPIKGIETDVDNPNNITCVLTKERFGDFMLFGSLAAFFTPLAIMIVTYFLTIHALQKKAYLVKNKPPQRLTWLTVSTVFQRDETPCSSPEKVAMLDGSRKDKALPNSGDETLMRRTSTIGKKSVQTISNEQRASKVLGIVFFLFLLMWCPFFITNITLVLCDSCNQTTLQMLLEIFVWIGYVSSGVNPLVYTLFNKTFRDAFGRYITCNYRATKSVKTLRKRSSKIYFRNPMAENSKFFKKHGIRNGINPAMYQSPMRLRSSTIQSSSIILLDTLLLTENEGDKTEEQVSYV
# Chain of Sodium-dependent dopamine transporter (Homo sapiens) (Q01959 whole entry): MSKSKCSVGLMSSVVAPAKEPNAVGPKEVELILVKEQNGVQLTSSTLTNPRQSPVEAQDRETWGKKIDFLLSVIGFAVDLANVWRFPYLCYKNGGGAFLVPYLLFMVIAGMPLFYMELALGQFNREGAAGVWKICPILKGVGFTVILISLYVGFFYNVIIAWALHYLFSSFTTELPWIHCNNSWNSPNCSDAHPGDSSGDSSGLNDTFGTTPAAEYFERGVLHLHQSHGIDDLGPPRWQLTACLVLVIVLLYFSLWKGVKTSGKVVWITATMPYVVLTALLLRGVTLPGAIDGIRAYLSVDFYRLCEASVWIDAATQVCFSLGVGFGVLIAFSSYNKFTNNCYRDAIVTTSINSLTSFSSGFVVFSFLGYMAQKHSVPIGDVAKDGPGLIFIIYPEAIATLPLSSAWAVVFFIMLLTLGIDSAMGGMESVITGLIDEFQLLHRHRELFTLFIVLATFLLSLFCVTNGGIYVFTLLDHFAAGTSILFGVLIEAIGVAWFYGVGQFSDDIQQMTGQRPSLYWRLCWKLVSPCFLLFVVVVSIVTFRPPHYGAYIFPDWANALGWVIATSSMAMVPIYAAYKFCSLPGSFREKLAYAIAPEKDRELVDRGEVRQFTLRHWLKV
# Chain of Muscarinic acetylcholine receptor M3 (Homo sapiens) (P20309 whole entry, looked up): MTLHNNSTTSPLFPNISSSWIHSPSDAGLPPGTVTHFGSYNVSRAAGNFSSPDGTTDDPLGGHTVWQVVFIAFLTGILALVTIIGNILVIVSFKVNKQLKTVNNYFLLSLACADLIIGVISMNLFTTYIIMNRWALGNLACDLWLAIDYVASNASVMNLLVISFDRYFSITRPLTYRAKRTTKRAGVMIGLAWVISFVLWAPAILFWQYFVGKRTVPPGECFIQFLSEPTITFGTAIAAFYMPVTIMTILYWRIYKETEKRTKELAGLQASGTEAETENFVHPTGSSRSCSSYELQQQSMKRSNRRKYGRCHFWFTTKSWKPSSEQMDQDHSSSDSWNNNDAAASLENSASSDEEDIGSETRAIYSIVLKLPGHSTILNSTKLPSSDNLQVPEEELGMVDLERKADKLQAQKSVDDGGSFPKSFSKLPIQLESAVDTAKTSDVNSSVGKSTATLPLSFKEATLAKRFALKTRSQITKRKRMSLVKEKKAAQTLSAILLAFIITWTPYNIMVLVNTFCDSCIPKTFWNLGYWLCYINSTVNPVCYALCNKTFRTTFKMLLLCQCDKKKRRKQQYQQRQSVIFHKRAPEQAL
# Chain of 5-hydroxytryptamine receptor 5A (Homo sapiens) (P47898 whole entry): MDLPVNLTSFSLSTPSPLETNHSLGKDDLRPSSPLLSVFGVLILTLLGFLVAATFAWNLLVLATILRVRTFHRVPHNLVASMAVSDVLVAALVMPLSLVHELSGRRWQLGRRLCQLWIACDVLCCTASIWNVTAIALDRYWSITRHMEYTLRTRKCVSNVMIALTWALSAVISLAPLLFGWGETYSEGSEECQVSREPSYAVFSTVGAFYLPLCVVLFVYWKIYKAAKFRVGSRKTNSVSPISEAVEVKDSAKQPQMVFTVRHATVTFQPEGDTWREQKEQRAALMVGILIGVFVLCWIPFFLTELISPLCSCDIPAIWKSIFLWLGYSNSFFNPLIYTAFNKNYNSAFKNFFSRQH
# Chain of Beta-1 adrenergic receptor (Homo sapiens) (P08588 whole entry, looked up): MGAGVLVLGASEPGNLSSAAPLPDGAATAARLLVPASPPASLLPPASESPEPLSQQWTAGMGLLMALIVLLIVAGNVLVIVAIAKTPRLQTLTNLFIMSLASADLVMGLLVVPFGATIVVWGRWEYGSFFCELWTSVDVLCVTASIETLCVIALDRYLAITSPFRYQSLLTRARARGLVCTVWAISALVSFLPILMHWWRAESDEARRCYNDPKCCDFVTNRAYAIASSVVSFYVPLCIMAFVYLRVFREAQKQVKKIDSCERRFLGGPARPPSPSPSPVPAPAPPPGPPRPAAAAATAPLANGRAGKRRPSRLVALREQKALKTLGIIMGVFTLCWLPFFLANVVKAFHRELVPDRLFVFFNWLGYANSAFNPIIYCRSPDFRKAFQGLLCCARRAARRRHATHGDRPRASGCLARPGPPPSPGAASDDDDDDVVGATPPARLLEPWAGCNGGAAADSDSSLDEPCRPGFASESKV
Structure (SMILES),inhibition [1],inhibition [2],inhibition [3],inhibition [4],inhibition [5],inhibition [6],inhibition [7],inhibition [8],inhibition [9],inhibition [10],inhibition [11]
Cc1nn(C)c(C)c1-c1cccc2c1CC[C@H](N(C)C)C2,1.62%,2.35%,44.1%,84.9%,85.9%,87.1%,102%,37.9%,–,–,–
Brc1c(NC2=NCCN2)ccc2nccnc12,55.7%,59%,–,22.7%,-5.05%,–,–,-6.87%,23.8%,–,–
CNC[C@H](O)c1ccc(O)c(O)c1,2.3%,12.1%,–,1.88%,–,-0.93%,–,32.7%,37%,–,–
CC(C)[C@H](CO)Nc1nc(Nc2cccc(Cl)c2)c2ncn(C(C)C)c2n1,12.9%,13%,-0.08%,96.2%,25.4%,60.9%,14.4%,17.5%,29.9%,–,–
Cc1cc(C)c(N)c(C#Cc2cccc(F)c2)n1,-8.91%,28.9%,-6.32%,29.9%,-2.76%,-5.73%,3.28%,9.26%,-7.35%,-8.58%,–
CCC(=O)NCC[C@@H]1CCc2ccc3c(c21)CCO3,-0.82%,10.9%,–,72%,6.73%,21.8%,89.6%,-2.02%,28.5%,–,–
OCc1cc(C(O)CNCCCCCCOCCCCc2ccccc2)ccc1O (stereo not given),47.7%,65.8%,-8.98%,90.4%,4.21%,9.07%,–,86.5%,–,23.3%,3.27%
CN1CCC(=C2c3ccccc3CC(=O)c3sccc32)CC1,1.66%,16.3%,–,98.4%,84.5%,43.5%,-1.6%,20.7%,–,-7.74%,75.2%
CCc1nn2c(C)cc(C)nc2c1Cc1ccc(-c2nnc(C3CCNCC3)o2)cc1,-7.24%,-0.67%,–,9.86%,93.4%,3.02%,52.4%,4.13%,-6.08%,-8.3%,–
O=c1ccn([C@@H]2O[C@H](COP(=O)(O)OP(=O)(O)OP(=O)(O)O)[C@@H](O)[C@H]2O)c(=O)[nH]1,–,11.6%,5.24%,-4.24%,-3.36%,16.9%,35.3%,-7.04%,-2.2%,5.87%,–
CCc1cc2c(cc1CC)CC(NC[C@H](O)c1ccc(O)c3[nH]c(=O)ccc13)C2,59%,75.3%,18.1%,92.6%,-4.69%,6.33%,-7.63%,83.1%,68%,–,–
CC(C)(C(=O)O)c1ccc(C(O)CCCN2CCC(C(O)(c3ccccc3)c3ccccc3)CC2)cc1 (stereo not given),2.41%,-2.43%,–,67.8%,–,–,35.9%,21.9%,–,-3.95%,–
CCCn1c(=O)c2nc(C34CC5CC(CC3C5)C4)[nH]c2n(CCC)c1=O,–,-8.33%,–,43.5%,-9.26%,–,32.7%,50%,–,-9.29%,–
COC(=O)[C@H]1[C@H]2C[C@H]3c4[nH]c5ccccc5c4CCN3C[C@H]2CC[C@@H]1O,58.4%,58.7%,–,94.3%,-2.94%,48.2%,63.2%,6.37%,6.36%,7.16%,–
COc1ccc2[nH]cc(CCNC(C)=O)c2c1,1.22%,-5.37%,–,49.5%,-3.39%,–,29.1%,29.5%,12%,-7.94%,–
NCCc1c[nH]c2ccc(C(N)=O)cc12,3.04%,14.8%,3.95%,78.8%,–,99.4%,20.2%,44.6%,–,–,7.09%
Clc1cccc(Cl)c1NC1=NCCN1,65.3%,66.8%,–,93.8%,5.96%,20.1%,–,20.8%,31.6%,–,–
O=C1N/C(=N/c2ccccc2F)S/C1=C\c1ccc(C(=O)O)cc1,–,–,-5.5%,-3.68%,-3.21%,–,17.9%,33.1%,9.47%,-4.18%,–
Cc1ccccc1N1CCN(S(=O)(=O)C[C@]23CC[C@H](C[C@@H]2NC(=O)[C@@H](N)CCS(C)(=O)=O)C3(C)C)CC1,-3.68%,4.26%,–,31.7%,-6.48%,-3.77%,89.9%,30.4%,0.75%,-8.2%,–
N#Cc1c(N)nc(SCc2csc(-c3ccc(Cl)cc3)n2)c(C#N)c1-c1ccc(OCCO)cc1,7.17%,6.13%,–,62.1%,1.79%,-4.31%,39%,64.1%,26.8%,5.12%,–
CC1CCN(CC[C@H]2CCCN2S(=O)(=O)c2cccc(O)c2)CC1,-3.56%,–,0.09%,15.4%,-9.3%,91.7%,-8.64%,46.1%,9.71%,-4.13%,–
CCc1nn(CCCN2CCN(c3cccc(Cl)c3)CC2)c(=O)n1CCOc1ccccc1,97.5%,83.9%,0.27%,79.6%,3.68%,73.3%,1.48%,78.7%,30.7%,-2.65%,–
